Holding throughout (type): in vivo, human
Experiment [1] relates to R-R intervals of the electrocardiogram. Nature of the experiment: ECG R-R interval variability (APSDR-R, time-domain indices), HR and BP during phenylephrine and added atropine. The following applies: for effect on BP and HR (R-R interval): spontaneous and metronome breathing. The protocol:
(§1) With IRB approval, 15 healthy nonsmoking male volunteers were instructed to refrain from caffeine and other known vasoactive compounds for at least 24 hours prior and then lie recumbent in a temperature-regulated room (70±1° F.). Surface electrodes were applied for monitoring ECG and respiration, a noninvasive BP cuff was placed over the brachial artery of one arm, and a 22 gauge intravenous catheter was placed in the opposite arm. In the first eight subjects, laser Doppler flowmetry probes (Periflux 2B, Perimed, Sweden) then were applied to the skin via double-stick tape on the forehead and on the finger contralateral to the BP cuff. In the remaining seven subjects, the sites of laser Doppler monitoring were modified and additional monitors were applied (see Example 3).
(§2) The ECG, respiration, and laser Doppler flux were recorded at 250 Hz with a microprocessor-based system which consisted of analog to digital converters, commercially available data acquisition and waveform analysis software (SnapMaster, HEM Data Corp.) and customized software for beat detection. Each R-wave was identified using the recommended combination of derivative plus threshold detection of the fiducial point of the data sampled at 250 Hz (Task Force of the European Society of Cardiology and the North American Society of Pacing and Electrophysiology: Heart rate variability. Standards of measurement, physiological interpretation, and clinical use. Circulation 1996;93:1043-1065). Ectopic beats were to be replaced with an interpolated value, but none were noted. BP was recorded at 2-5 min intervals.
(§3) Following 5 min of baseline (BASE) monitoring during spontaneous ventilation BASESPONT), each subject breathed in synchrony with an audible metronome at a rate of 12 breaths/min (BASEMETRO); each segment lasted 5 min (of which the middle 200 sec were used for subsequent analysis). Subjects then received an infusion of phenylephrine, which was titrated until there was >25% decline in finger flow for 10 min. […] Five minutes of data during this PHENYL phase were recorded during SPONT and during METRO (PHENYLSPONT and PHENYLMETRO). Atropine was then administered IV in 0.25-0.50 mg increments until HR was at least 33% above PHENYL. Measurements during this PH+ATR phase were recorded for 5 min during each of the two respiratory patterns (PH+ATRSPONT and PH+ATRMETRO). The phenylephrine then was discontinued. The values from all subjects were averaged to provide the overall means±standard error (SE) for the sampling periods that are summarized in the FIGS. 5-8.
(§4) The frequency and power of the oscillations of the R-R intervals and laser Doppler flux values (flux) were characterized by frequency-domain analysis. As described in the prior art (Task Force of the European Society of Cardiology, 1996), the “R-R tachogram” and laser Doppler signal were resampled at 5 Hz, a rate more than sufficient to enable identification of oscillatory frequencies within the frequency range of interest (according to Nyquist's theorem and recent Task Force recommendations (see Task Force of the European Society of Cardiology, 1996)). An APSD was then generated for the R-R interval [APSDR-R (msec^2/Hz vs. Hz)], for the laser Doppler signal taken at the forehead [APSDFOREHEAD FLUX (mVolt^2/Hz vs. Hz)], and for the laser Doppler signal taken at the finger [APSDFINGER (mvolt^2/Hz vs. Hz)] in each subject using a traditional (Parzan) window. For each APSD, 200 sec of data were resampled at 5 Hz, providing a spectral resolution of 0.005 Hz (5 cycles per sec/1,000 data points); the mean value of the signal was subtracted from the data to eliminate its influence on the APSD. For purposes of presentation, each pair of adjacent 0.005 Hz bins was summated to provide bins with a width of 0.01 Hz. […]

The subject of experiment [2] is forehead microvasculature. Nature of the experiment: Laser Doppler flowmetry of forehead flux, spectral- and time-domain analysis, during phenylephrine challenge and added atropine. The following applies: for beat-to-beat % change of forehead flux: p<0.05; for flux at the forehead: mean (SE). Here is the method: as §1, §2, §3, §4
Experiment [3] relates to forehead microvasculature. The experiment is described as above.
A further experiment has as its system finger microvasculature. Nature of the experiment: Laser Doppler flowmetry of finger flux during phenylephrine infusion. The protocol: as §1, with “In the remaining seven subjects, the sites of laser Doppler monitoring were modified and additional monitors were applied (see Example 3).” left out
The ECG, respiration, and laser Doppler flux were recorded at 250 Hz with a microprocessor-based system which consisted of analog to digital converters, commercially available data acquisition and waveform analysis software (SnapMaster, HEM Data Corp.) and customized software for beat detection. […] BP was recorded at 2-5 min intervals.
Following 5 min of baseline (BASE) monitoring during spontaneous ventilation BASESPONT), each subject breathed in synchrony with an audible metronome at a rate of 12 breaths/min (BASEMETRO); each segment lasted 5 min (of which the middle 200 sec were used for subsequent analysis). […] Five minutes of data during this PHENYL phase were recorded during SPONT and during METRO (PHENYLSPONT and PHENYLMETRO). […]

For experiment [4], the system named is forehead flux and R-R oscillations. Nature of the experiment: Cross power spectral density of forehead flux and R-R after normalization to mean. The following applies: PHENYL. Here is the method: FIGS. 11A-D are a graphical comparison of normalized data in the time and frequency-domains, in accordance with the present invention. The signals were normalized prior to time and frequency domain analysis, as follows: (1) LDF flow data was resampled at 5 Hz (data from FIG. 5); (2) mean flow data for the entire study segment (i.e., 5.33522) was determined; and (3) the normalized values were obtained by dividing each resampled value by the corresponding mean value for the study segment. Normalization facilitates visual inspection as well as time-domain and spectral-domain comparisons of the oscillatory signal(s) to values under different circumstances (e.g. baseline vs. challenge state) or to the values of another parameter. Although the values in FIG. 11 were normalized to the mean, it may be preferable in some settings to normalize to the median since this is less affected by outliers. […] The CPSD is calculated by determining the normalized power of a signal from the instantaneous amplitude-spectrum using the following equation: Gab=ave(SaSb*)/df where Gab=instantaneous amplitude spectral density of the sampling channels; Sa=instantaneous amplitude spectrum of channel a; Sb*=complex conjugate of Sb; df=frequency resolution. […]

`CN1[C@@H]2CC[C@H]1C[C@@H](OC(=O)C(CO)c1ccccc1)C2` (some centres unmarked) [atropine]: the “effect on power in the max bin of APSDR-R” value in experiment [1] (atropine added to phenylephrine, SPONT and METRO) is reported as “decrease significantly below BASE values”. For the same compound, in experiment [1], the “effect on BP and HR (R-R interval)” value was “exacerbated the increase in BP and reversed the prolongation of the R-R interval”. Also, in experiment [2] (atropine IV added to phenylephrine infusion (PH+ATR), METRO, p=NS vs BASE), the “effect on maxbin power of APSDFOREHEADFLUX” value is reported as “reduced power in the maxbin to near-BASE”. Further, the “effect on phenylephrine-induced HF forehead oscillatory signal” value in experiment [2] (atropine added to phenylephrine) is on record as “nearly eliminated”.

In the case of `CNC[C@H](O)c1cccc(O)c1` [phenylephrine], in experiment [3] (one subject, phenylephrine infusion, continuous intra-arterial monitoring), the “maxbin frequency of the APSDFOREHEAD FLUX” value was determined as 0.13 Hz. In addition, the “frequency at which forehead oscillations increased” value in experiment [3] (two subjects, phenylephrine bolus) was “approximately 0.13 Hz”. Further, in the experiment on finger microvasculature (phenylephrine infusion), the “atropine-sensitive oscillations in the finger” value was “did not induce atropine-sensitive oscillations in the finger”. Also, the Finger flux decline entry with finger microvasculature (phenylephrine infusion 0.4-0.6 μg/kg/min, both METRO and SPONT, p<0.05) is “approximately 50%”. Further, the “power/bin for each of the 26 bins in the APSDR-R” value in experiment [1] (METRO, PHENYL, BASE 475.4 (111.7)) is 393.8 (100.9) msec^2/Hz. Further, the “normalized power of the max bin (0.2 Hz) of APSDR-R” value in experiment [1] (METRO, PHENYL, BASE 799.7 (138.2)%) was 1050.0 (205.8) %. Moreover, the “power of the max bin of the RF band of APSDR-R” value in experiment [1] (METRO, PHENYL, BASE 4,354 (1556.0)) is 4060.2 (996.2) msec^2/Hz. Moreover, the “beat-to-beat % change of R-R” value in experiment [1] (metronome breathing, PHENYL, BASE 4.3 (0.6)%, p=0.2) was 5.6 (0.7) %; in experiment [1] (spontaneous breathing, PHENYL, BASE 3.2 (0.4)%, p=ns) it was 3.7 (0.4) %. In experiment [1], the “effect on BP and HR (R-R interval)” value was “increase in BP and slowing of HR”. The “degree to which maxbin in IF band of CPSDFLUX&R-R reflected power in maxbin of APSDFOREHEADFLUX/mean” value in experiment [4] (BASE 32.3±10.7%, p=0.004) was determined as 7.0±1.8%. In addition, the “relative degree to which maxbin in IF band of APSDR-R/mean reflected power in maxbin of CPSDFLUX&R-R” value in experiment [4] (BASE 33.6±11.0%, p=0.002) is 7.3±1.8%. Further, the “Power/bin of the APSDFOREHEADFLUX” value in experiment [2] (METRO, PHENYL, BASE 1.3(0.5), p=0.0005) is 6.5(2.2) mvolt^2/Hz. For the same compound, the “beat-to-beat % change of forehead flux” value in experiment [2] (METRO, PHENYL, BASE 4.9 (1.1)%) is 11.9 (2.3) %; in experiment [2] (SPONT, PHENYL, BASE 3.4 (0.3)%), 10.7 (2.2) %. Besides, in experiment [2] (METRO, PHENYL, BASE 10.2(5.5), p=0.0003), the “Maxbin power of APSDFOREHEADFLUX” value is listed as 101.7(39.7) mvolt^2/Hz. Besides, the results for the “normalized maxbin power of APSDFOREHEADFLUX, % of average power/bin at BASE” value in experiment [2] (PHENYLMETRO) and in experiment [2] (PHENYLSPONT) were 7,304(1,630) % and 8,061(4,550) %, respectively. For the same compound, the “flux at the forehead” value in experiment [2] (PHENYLMETRO, p>0.4 vs BASE 2.1 (0.5)) is 2.3 (0.6) volts; in experiment [2] (PHENYLSPONT, p>0.3 vs BASE 2.1 (0.5)), 1.5 (0.6) volts. In addition, the “frequency of atropine-sensitive peak in APSDFOREHEADFLUX” value in experiment [2] (PHENYLSPONT) is on record as 0.14±0.02 Hz. In experiment [2] (phenylephrine infusion, METRO (0.20 Hz breathing)), the “frequency of maxbin / oscillatory peak in APSDFOREHEADFLUX” value came to 0.14±0.02 Hz.

Source of the values: patent publication US7367941B2, “Detection and characterization of cholinergic oscillatory control in peripheral microvasculature” (Yale University, priority 2000, dated 2008).
